The values that follow come from patent US20110053884A1, “POTENT COMBINATIONS OF […] DRUGS THAT SELECT FOR THE K65R MUTATION IN THE HIV POLYMERASE” (priority 2007, published 2011).

The test system of data set [1] is PBM cells. The following applies: cited from earlier work; for Rate of dephosphorylation: in vivo.
In data set [2] the test system is HIV. Put plainly: Randomized double blind placebo controlled study, HIV RNA viral load over 10 days of treatment. In kind it is in vivo, human. The procedure:
(§1) Subjects with HIV RNA viral load (VL)≧5,000 copies/mL were enrolled and randomized 1:1:1 to DAPD 500 mg bid: DAPD 500 mg with AZT 300 mg bid: DAPD 500 mg with AZT 200 mg bid for 10 days. In each arm, subjects were randomized 3:1 to DAPD: placebo. VL was determined daily.

For data set [3] the following is noted: Day 20; rank order of treatment groups (mg bid). The procedure: Twenty-four subjects were enrolled [placebo (n=2), AZT 200 mg (n=2), AZT 300 mg (n=2), DAPD 500 mg (n=6), DAPD/AZT 200 mg (n=6), and DAPD/AZT 300 mg (n=6)] and treated for 10 days. Hematological indices including hemoglobin (g/dl) and mean corpuscular volume (MCV, femtoliters) were measured at Screening, Day 1 prior to receiving treatment and Days 5, 10 and 20.

Data set [4] concerns the target T1, TK1 (Homo sapiens, UniProt P04183).
T1 sequence (P04183 1-234): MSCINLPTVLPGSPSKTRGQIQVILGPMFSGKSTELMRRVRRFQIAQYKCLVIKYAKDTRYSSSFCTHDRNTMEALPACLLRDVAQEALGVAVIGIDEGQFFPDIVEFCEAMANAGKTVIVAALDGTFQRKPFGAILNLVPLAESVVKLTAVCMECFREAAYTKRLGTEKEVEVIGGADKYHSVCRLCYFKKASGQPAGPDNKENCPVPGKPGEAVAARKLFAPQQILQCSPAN
The data set can be described thus: Phosphorylation of AZT to AZT-MP by thymidine kinase. It counts as biochemical. As to conditions: activated PBM cells. From the text:
(§2) The initial intracellular phosphorylation step of AZT is catalyzed by thymidine kinase (TK). The most likely enzyme for monophosphorylation to AZT-MP is TK1, which is located primarily in the cytosol of cells in S-phase. […] Since the initial phosphorylation step of AZT to AZT-MP remains approximately linear with dose (5, 22), the Vmax,TK1 was assumed constant between individuals. […] The maximal rates of phosphorylation to AZT-MP and AZT-DP (Vmax,AZT-MP and Vmax,ThymK, respectively) in activated PBM cells were calculated using previously published enzyme kinetics measurements from a cohort of HIV-1 infected individuals who were not previously treated with AZT (36). […] The calculation assumed a volume of 0.21 μl/10^6, corresponding to a protein content of 0.12 mg (3, 33). The final phosphorylation step to active AZT-TP is catalyzed by nucleoside diphosphate kinase and is not rate limiting under physiological conditions. […] Therefore, the conversion rate of AZT-DP to AZT-TP (KDP,TP) was also assumed to be 0.28 h^−1. The assumed distributions for the rate constants describing the cellular phosphorylation and dephosphorylation of AZT are contained in Table 2.

Data set [5] concerns the target T2, thymidylate kinase (Homo sapiens, UniProt P23919).
T2 sequence (P23919 1-212): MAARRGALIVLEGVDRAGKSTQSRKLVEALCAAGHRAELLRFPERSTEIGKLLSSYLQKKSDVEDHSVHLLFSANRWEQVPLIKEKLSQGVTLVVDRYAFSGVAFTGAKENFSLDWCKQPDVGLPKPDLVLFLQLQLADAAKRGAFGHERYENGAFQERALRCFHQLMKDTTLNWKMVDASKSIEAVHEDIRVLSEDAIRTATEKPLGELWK
The data set can be described thus: Phosphorylation of AZT-MP to AZT-DP by thymidylate kinase. In kind it is biochemical. As to conditions: activated PBM cells of HIV-1 infected individuals not previously treated with AZT; SD of log-transformed values 0.89.
From the text: as §2

The conditions of data set [6]: single dose, intravenous and oral, HIV-1 infected individuals; cited from earlier work.
The target of data set [7] is T1, TK1. The following applies: concentration at 50% of maximal metabolism rate; read-out: Km versus TK1; cited from earlier work.
The target of data set [8] is T2, thymidylate kinase. As to conditions: cited from earlier work; for Km: substrate AZT-MP, read-out: Km versus thymidylate kinase (Km,ThmK).
The test system of data set [9] is HIV-1. As to conditions: incubation up to week 28; cited from earlier work.
Data set [10] has as its target wild-type HIV-1 reverse transcriptase (Human immunodeficiency virus type 1 group M subtype B, UniProt P03366). The following applies: cited from earlier work.
A short description of data set [11]: Tolerability in the DAPD/AZT clinical study. It counts as in vivo, human. The following applies: 10 days of treatment, HIV-infected subjects. The procedure:
as §1

The conditions of data set [12]: cited from earlier work.

The structures appear in SMILES notation.

A word on the Km: it is the substrate concentration at which the rate is half of its maximum. What is called IC50 is the midpoint of a concentration-inhibition curve.

For `Cc1cn([C@H]2C[C@H](N=[N+]=[N-])[C@@H](COP(=O)(O)OP(=O)(O)O)O2)c(=O)[nH]c1=O` [AZT-DP, AZT-diphosphate], the Rate of dephosphorylation in data set [1] is 0.28 h⁻¹.

As to `Cc1cn([C@H]2C[C@H](N=[N+]=[N-])[C@@H](CO)O2)c(=O)[nH]c1=O` [AZT, 3′-azido-3′-deoxythymidine], the “Mean VL ± SD from baseline” value in data set [2] (Day 9, AZT 200 mg bid alone) is listed as −0.80 log10 copies/mL; in data set [2] (Day 9, AZT 300 mg bid alone), −0.35 log10 copies/mL; in data set [2] (Day 10, AZT 200 mg bid alone) it was −0.65 log10 copies/mL; in data set [2] (Day 10, AZT 300 mg bid alone) it was −0.45 log10 copies/mL; in data set [2] (Day 11, AZT 200 mg bid alone), −0.70 log10 copies/mL; in data set [2] (Day 11, AZT 300 mg bid alone), −0.60 log10 copies/mL. Besides, in [3], the “Trend in decrease in hemoglobin from Baseline” value was “DAPD/AZT 300≧AZT 300≧DAPD/AZT 200>AZT 200>DAPD>placebo”. Besides, the “Trend in increase in MCV from Baseline” value in [3] is given as “DAPD/AZT 300>AZT 300>DAPD/AZT 200>AZT 200>placebo>DAPD”. Also, the “Vmax,TK1, maximal rate of phosphorylation to AZT-MP” value in [4] stood at 0.86 μmol/l per hr. In data set [5], the “Vmax,ThymK, median” value came to 0.13 μmol/l per hr. The “Systemic clearance (Cl)” value in [6] is 18.3 to 25 mL/min/kg. Besides, the “Volume of distribution (Vss)” value in data set [6] was 1.3 to 1.4 L/kg. For the same compound, the Km is 0.6 µM in [7] and 12 µM in [8]. Further, in data set [9], the “Drug resistant mutations selected in vitro” value was “a mixture of K70K/R mutations at week 25”. In data set [1], the “Accumulation of AZT nucleotides, stimulated versus resting PBM cells” value is listed as 60 to 150 times. The Rate of dephosphorylation in data set [1] is 0.28 h⁻¹.

As for `Cc1cn([C@H]2C[C@H](N=[N+]=[N-])[C@@H](COP(=O)(O)O)O2)c(=O)[nH]c1=O` [AZT-MP, zidovudine-monophosphate], the “Vmax,ThymK, median” value in [5] is recorded as 0.13 μmol/l per hr. Further, the Km in data set [8] was 12 µM. For the same compound, the “Vmax,AZT-MP as share of the Vmax versus thymidine-MP” value in data set [8] (thymidylate kinase) is given as 0.3%. Also, in data set [1], the Rate of dephosphorylation was 0.28 h⁻¹.

On to `Cc1cn([C@H]2C[C@H](N=[N+]=[N-])[C@@H](CO[P@](=O)(O)O[P@](=O)(O)OP(=O)(O)O)O2)c(=O)[nH]c1=O` [AZT-TP, zidovudine-triphosphate], for which the IC50 in data set [10] was roughly 35 nM. In addition, the Rate of dephosphorylation in [1] is 0.28 h⁻¹.

For `Nc1nc(N)c2ncn([C@H]3CO[C@@H](CO)O3)c2n1` [DAPD, (−)-β-D-2,6-diaminopurine dioxolane], the “Mean VL ± SD from baseline” value in [2] (Day 9, DAPD 500 mg bid alone) was −0.83 ± 0.61 log10 copies/mL; in [2] (Day 10, DAPD 500 mg bid alone), −1.07 ± 0.80 log10 copies/mL; in data set [2] (Day 11, DAPD 500 mg bid alone), −1.03 ± 0.59 log10 copies/mL. Further, the “Trend in decrease in hemoglobin from Baseline” value in data set [3] was “DAPD/AZT 300≧AZT 300≧DAPD/AZT 200>AZT 200>DAPD>placebo”. Further, in [3], the “Trend in increase in MCV from Baseline” value is reported as “DAPD/AZT 300>AZT 300>DAPD/AZT 200>AZT 200>placebo>DAPD”. Further, in data set [11], the Tolerability entry is “well tolerated”. For the same compound, the “Drug resistant mutations selected in vitro” value in data set [9] is “a mixture of K65R and L74V at week 20”.

Regarding `Nc1nc2c(ncn2[C@H]2CO[C@@H](CO)O2)c(=O)[nH]1` [DXG, beta-D-(2R,4R)-1,3-dioxolane guanosine], the Cellular triphosphate half-life in data set [12] is roughly 9.5 h.

As for `C[C@H](Cn1cnc2c(N)ncnc21)OCP(=O)(O)O` [tenofovir, 9-R-2-phosphonomethoxypropyl adenine], the Cellular triphosphate half-life in data set [12] was greater than 60 h.
